Molecular target: HLA-A*02 (Homo sapiens, UniProt P04439, D140Y/D185E/D98H/E176V/E277Q/G131W/G231S/I119V/I121R/I166T/I218V/N151K/N90K/P208A/P217A/Q86G/Q94H/R138H/R169H)
Assay: MHC binding assay: UV-ligand exchange, beta2m ELISA (peptide exchange yield)
Settings: binding to HLA-A*02, β2m ELISA
Text: (§1) Candidate peptides for T cell based therapies according to the present invention were further tested for their MHC binding capacity (affinity). The individual peptide-MHC complexes were produced by UV-ligand exchange, where a UV-sensitive peptide is cleaved upon UV-irradiation, and exchanged with the peptide of interest as analyzed. Only peptide candidates that can effectively bind and stabilize the peptide-receptive MHC molecules prevent dissociation of the MHC complexes. To determine the yield of the exchange reaction, an ELISA was performed based on the detection of the light chain (β2m) of stabilized MHC complexes. The assay was performed as generally described in Rodenko et al. (Rodenko et al., 2006).
(§2) 96 well MAXISorp plates (NUNC) were coated over night with 2 ug/ml streptavidin in PBS at room temperature, washed 4× and blocked for 1 h at 37° C. in 2% BSA containing blocking buffer. […] Peptide-MHC monomers of the UV-exchange reaction were diluted 100 fold in blocking buffer. Samples were incubated for 1 h at 37° C., washed four times, incubated with 2 ug/ml HRP conjugated anti-βm for 1 h at 37° C., washed again and detected with TMB solution that is stopped with […]. Absorption was measured at 450 nm. Candidate peptides that show a high exchange yield (preferably higher than 50%, most preferred higher than 75%) are generally preferred for a generation and production of antibodies or fragments thereof, and/or T cell receptors or fragments thereof, as they show sufficient avidity to the MHC molecules and prevent dissociation of the MHC complexes.

Peptide exchange (MHC class I binding score, peptide exchange yield)	Substance
+++ (50%-75% = +++)	70 (GLFSQHFNL; listed as Homo sapiens) [compound 70]
+++ (50%-75% = +++)	66 (FITDFYTTV; listed as Homo sapiens) [compound 66]

The remaining lines, values behind:

Substance	Peptide exchange (MHC class I binding score, peptide exchange yield)
12 (GLIYEETRGV; listed as Homo sapiens) [compound 12]	++ (20%-49% = ++)
42 (VLSPFILTL; listed as Homo sapiens) [compound 42]	+++ (50%-75% = +++)
72 (GMIGFQVLL; listed as Homo sapiens) [compound 72]	+++ (50%-75% = +++)
26 (KVDGVVIQL; listed as Homo sapiens) [compound 26]	+++ (50%-75% = +++)
62 (SLFNQEVQI; listed as Homo sapiens) [compound 62]	+++ (50%-75% = +++)
65 (KLDGICWQV; listed as Homo sapiens) [compound 65]	+++ (50%-75% = +++)

Test system: HLA-A*24
Assay: as above
Design: species or system human
Settings: binding to HLA-A*24, β2m ELISA
Text: as §1, §2

Peptide exchange (MHC class I binding score, peptide exchange yield)	Substance
++++ (>= 75% = ++++)	289 (FFHEGQYVF; listed as Homo sapiens) [compound 289]
++++ (>= 75% = ++++)	296 (SYQVIFQHF; listed as Homo sapiens) [compound 296]
++++ (>= 75% = ++++)	319 (KYSDVKNLI; listed as Homo sapiens) [compound 319]
++++ (>= 75% = ++++)	148 (SYGTVSQIF; listed as Homo sapiens) [compound 148]
++++ (>= 75% = ++++)	209 (AFIETPIPLF; listed as Homo sapiens) [compound 209]
++++ (>= 75% = ++++)	261 (GYIKLINFI; listed as Homo sapiens) [compound 261]
++++ (>= 75% = ++++)	280 (TYNPNLQDKL; listed as Homo sapiens) [compound 280]
++++ (>= 75% = ++++)	298 (AYKSEVVYF; listed as Homo sapiens) [compound 298]
++++ (>= 75% = ++++)	129 (KYIDYLMTW; listed as Homo sapiens) [compound 129]
++++ (>= 75% = ++++)	223 (TFITQSPLL; listed as Homo sapiens) [compound 223]
++++ (>= 75% = ++++)	313 (KYTHFIQSF; listed as Homo sapiens) [compound 313]
++++ (>= 75% = ++++)	154 (VYGVPTPHF; listed as Homo sapiens) [compound 154]
++++ (>= 75% = ++++)	208 (TYLEKIDGF; listed as Homo sapiens) [compound 208]
++++ (>= 75% = ++++)	248 (AFPTFSVQL; listed as Homo sapiens) [compound 248]
++++ (>= 75% = ++++)	185 (QYLVHVNDL; listed as Homo sapiens) [compound 185]
++++ (>= 75% = ++++)	187 (AYAANVHYL; listed as Homo sapiens) [compound 187]
++++ (>= 75% = ++++)	211 (VFKSEGAYF; listed as Homo sapiens) [compound 211]
++++ (>= 75% = ++++)	265 (SYLNEAFSF; listed as Homo sapiens) [compound 265]
++++ (>= 75% = ++++)	264 (LYTETRLQF; listed as Homo sapiens) [compound 264]
++++ (>= 75% = ++++)	153 (VYVPFGGKSMITF; listed as Homo sapiens) [compound 153]
++++ (>= 75% = ++++)	260 (VYMNVMTRL; listed as Homo sapiens) [compound 260]
++++ (>= 75% = ++++)	293 (VYPHFSTTNLI; listed as Homo sapiens) [compound 293]
++++ (>= 75% = ++++)	196 (GYIRGSWQF; listed as Homo sapiens) [compound 196]
++++ (>= 75% = ++++)	173 (QYLEKYYNL; listed as Homo sapiens) [compound 173]
++++ (>= 75% = ++++)	116 (AYVIAVHLF; listed as Homo sapiens) [compound 116]

Further lines, the substance ahead of its results:

Substance	Peptide exchange (MHC class I binding score, peptide exchange yield)
220 (SYSEIKDFL; listed as Homo sapiens) [compound 220]	++++ (>= 75% = ++++)
149 (SYGTVSQI; listed as Homo sapiens) [compound 149]	++++ (>= 75% = ++++)
271 (RFLMKSYSF; listed as Homo sapiens) [compound 271]	++++ (>= 75% = ++++)
297 (TYIDTRTVF; listed as Homo sapiens) [compound 297]	++++ (>= 75% = ++++)
206 (NYLDVATFL; listed as Homo sapiens) [compound 206]	++++ (>= 75% = ++++)
311 (EYLQNLNHI; listed as Homo sapiens) [compound 311]	++++ (>= 75% = ++++)
135 (VYEAMVPLF; listed as Homo sapiens) [compound 135]	++++ (>= 75% = ++++)
128 (VYPFDWQYI; listed as Homo sapiens) [compound 128]	++++ (>= 75% = ++++)
231 (AFADVSVKF; listed as Homo sapiens) [compound 231]	++++ (>= 75% = ++++)
305 (NYENKQYLF; listed as Homo sapiens) [compound 305]	++++ (>= 75% = ++++)
276 (QYLDVLHAL; listed as Homo sapiens) [compound 276]	++++ (>= 75% = ++++)
286 (SYGTILSHI; listed as Homo sapiens) [compound 286]	++++ (>= 75% = ++++)
210 (IYAGVGEFSF; listed as Homo sapiens) [compound 210]	++++ (>= 75% = ++++)
262 (VYSSQFETI; listed as Homo sapiens) [compound 262]	++++ (>= 75% = ++++)
221 (KYIGNLDLL; listed as Homo sapiens) [compound 221]	++++ (>= 75% = ++++)
272 (RYVFPLPYL; listed as Homo sapiens) [compound 272]	++++ (>= 75% = ++++)
197 (IFTDIFHYL; listed as Homo sapiens) [compound 197]	++++ (>= 75% = ++++)
379 (VFIAQGYTL; listed as Homo sapiens) [compound 379]	++++ (>= 75% = ++++)
357 (QFITSTNTF; listed as Homo sapiens) [compound 357]	++++ (>= 75% = ++++)
252 (AFGQETNVPLNNF; listed as Homo sapiens) [compound 252]	++++ (>= 75% = ++++)
217 (IYISNSIYF; listed as Homo sapiens) [compound 217]	++++ (>= 75% = ++++)
290 (KYGDFKLLEF; listed as Homo sapiens) [compound 290]	++++ (>= 75% = ++++)
249 (RYHPTTCTI; listed as Homo sapiens) [compound 249]	++++ (>= 75% = ++++)
301 (KFDDVTMLF; listed as Homo sapiens) [compound 301]	++++ (>= 75% = ++++)
97 (TYTFLKETF; listed as Homo sapiens) [compound 97]	++++ (>= 75% = ++++)
184 (IYSVGAFENF; listed as Homo sapiens) [compound 184]	++++ (>= 75% = ++++)
292 (FYPQIINTF; listed as Homo sapiens) [compound 292]	++++ (>= 75% = ++++)
